According to PubChem BioAssay AID2060883 (Molecular Pharmacology Branch, DTP, NCI, 2025):
Several values for one entry are separate records, joined by “and”; a condition that tells them apart may be missing. Equal entries are not always repeated.

System: 843782-103-R-J1-PDC complex spheroid viability
Assay: Anticancer human tumor 843782-103-R-J1-PDC patient-derived lung adenocarcinoma cell line growth inhibition [RAS]
Conditions: for viability, T/C: stronger effect = lower value; active means viability on the fitted dose curve at most 10% of control; inactive means the rest
Procedure, shortened: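 Tumour cells grown as complex spheroids with HUVEC endothelial cells and mesenchymal stem cells, treated with RAS pathway inhibitor combinations. Each agent spans half-log steps from near clinical Cmax, or 10 microM where Cmax is unknown.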

[1] = curve of first compound, second compound 0.000949 µM
[2] = curve of first compound, second compound 0.003 µM
[3] = curve of first compound, second compound 0.00949 µM
[4] = curve of first compound, second compound 0.03 µM
[5] = curve of first compound, second compound 0.0949 µM
[6] = curve of first compound, second compound 0.3 µM
[7] = second compound 0.000949 µM, first compound 0.0316 µM
[8] = second compound 0.000949 µM, first compound 0.1 µM
[9] = second compound 0.003 µM, first compound 0.0316 µM
[10] = second compound 0.003 µM, first compound 0.1 µM
[11] = second compound 0.00949 µM, first compound 0.0316 µM
[12] = second compound 0.00949 µM, first compound 0.1 µM
[13] = second compound 0.03 µM, first compound 0.0316 µM
[14] = second compound 0.03 µM, first compound 0.1 µM
[15] = second compound 0.0949 µM, first compound 0.0316 µM
[16] = second compound 0.0949 µM, first compound 0.1 µM
[17] = second compound 0.3 µM, first compound 0.0316 µM
[18] = second compound 0.3 µM, first compound 0.1 µM
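Further: viability read after seven days of compound exposure.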

CC(=O)OC12COC1CC(O)C1(C)C(=O)C(O)C3=C(C)C(OC(=O)C(O)C(NC(=O)OC(C)(C)C)c4ccccc4)CC(O)(C(OC(=O)c4ccccc4)C21)C3(C)C (stereo not drawn) + CCn1c(-c2cccnc2C(C)OC)c2c3cc(ccc31)N1CCOC(CC(NC(=O)C(C(C)C)N(C)C(=O)C3(F)CCN(C(=O)C#CC(C)(C)N(C)C)CC3)C(=O)N3CCCC(N3)C(=O)OCC(C)(C)C2)C1
active: viability, T/C [7] 4.08% | viability, T/C [8] 5.48% | viability, T/C (second compound 0.000949 µM, first compound 0.316 µM) 6.81% | viability, T/C (second compound 0.000949 µM, first compound 1 µM) 5.51% | viability, T/C (second compound 0.000949 µM, first compound 3.16 µM) 7.48% | viability, T/C (second compound 0.000949 µM, first compound 10 µM) 11.2% | viability, T/C [9] 5.53% | viability, T/C [10] 7.6% | viability, T/C (second compound 0.003 µM, first compound 0.316 µM) 7.77% | viability, T/C (second compound 0.003 µM, first compound 1 µM) 6.28% | viability, T/C (second compound 0.003 µM, first compound 3.16 µM) 6.75% | viability, T/C (second compound 0.003 µM, first compound 10 µM) 9.92% | viability, T/C [11] 5.3% | viability, T/C [12] 8.65% | viability, T/C (second compound 0.00949 µM, first compound 0.316 µM) 9.68% | viability, T/C (second compound 0.00949 µM, first compound 1 µM) 7.03% | viability, T/C (second compound 0.00949 µM, first compound 3.16 µM) 10% | viability, T/C (second compound 0.00949 µM, first compound 10 µM) 9.14% | viability, T/C [13] 5.25% | viability, T/C [14] 7.67% | viability, T/C (second compound 0.03 µM, first compound 0.316 µM) 6.65% | viability, T/C (second compound 0.03 µM, first compound 1 µM) 8.38% | viability, T/C (second compound 0.03 µM, first compound 3.16 µM) 9.51% | viability, T/C (second compound 0.03 µM, first compound 10 µM) 12.3% | viability, T/C [15] 8.61% | viability, T/C [16] 7.03% | viability, T/C (second compound 0.0949 µM, first compound 0.316 µM) 8.34% | viability, T/C (second compound 0.0949 µM, first compound 1 µM) 7.78% | viability, T/C (second compound 0.0949 µM, first compound 3.16 µM) 10.6% | viability, T/C (second compound 0.0949 µM, first compound 10 µM) 9.37% | viability, T/C [17] 3.84% | viability, T/C [18] 5.17% | viability, T/C (second compound 0.3 µM, first compound 0.316 µM) 6.69% | viability, T/C (second compound 0.3 µM, first compound 1 µM) 9.62% | viability, T/C (second compound 0.3 µM, first compound 3.16 µM) 8.58% | viability, T/C (second compound 0.3 µM, first compound 10 µM) 9.58%
< 31.6 nM: IC50 [1] | IC50 [2] | IC50 [3] | IC50 [4] | IC50 [5] | IC50 [6]

C#Cc1c(F)ccc2cc(O)cc(-c3ncc4c(N5CC6CCC(C5)N6)nc(OCC56CCCN5CC(F)C6)nc4c3F)c12 (stereo not drawn)
inactive: viability, T/C (compound 0.0316 µM) 104% [middle of 8 runs] | viability, T/C (compound 0.1 µM) 106% [middle of 8 runs] | viability, T/C (compound 0.316 µM) 106% [middle of 8 runs] | viability, T/C (compound 1 µM) 101% [middle of 8 runs] | viability, T/C (compound 3.16 µM) 85.1% [middle of 8 runs] | viability, T/C (compound 10 µM) 59.7% [middle of 8 runs]
> 10000 nM and 8730 nM: IC50 (compound alone, run of 09/09/2024)

Nc1ccn(C2OC(CO)C(O)C2(F)F)c(=O)n1 (stereo not drawn) + C=CC(=O)N1CCN(c2nc(OCC3CCCN3C)nc3c(F)c(-c4nc(N)cc(C)c4C(F)(F)F)c(Cl)cc23)C(C)C1
21.7 nM: IC50 (curve of first compound, second compound 0.1 µM)
25.4 nM: IC50 (curve of first compound, second compound 0.0316 µM)
34.4 nM: IC50 (curve of first compound, second compound 0.01 µM)
active: viability, T/C (second compound 0.00316 µM, first compound 0.1 µM) 3.04% | viability, T/C (second compound 0.00316 µM, first compound 0.316 µM) 1.74% | viability, T/C (second compound 0.00316 µM, first compound 1 µM) 2.04% | viability, T/C (second compound 0.01 µM, first compound 0.1 µM) 3.4% | viability, T/C (second compound 0.01 µM, first compound 0.316 µM) 1.89% | viability, T/C (second compound 0.01 µM, first compound 1 µM) 1.3% | viability, T/C (second compound 0.0316 µM, first compound 0.1 µM) 4.87% | viability, T/C (second compound 0.0316 µM, first compound 0.316 µM) 1.41% | viability, T/C (second compound 0.0316 µM, first compound 1 µM) 1.39% | viability, T/C (second compound 0.1 µM, first compound 0.1 µM) 2.56% | viability, T/C (second compound 0.1 µM, first compound 0.316 µM) 1.84% | viability, T/C (second compound 0.1 µM, first compound 1 µM) 1.83% | viability, T/C (second compound 0.316 µM, first compound 0.1 µM) 4.66% | viability, T/C (second compound 0.316 µM, first compound 0.316 µM) 1.55% | viability, T/C (second compound 0.316 µM, first compound 1 µM) 1.83% | viability, T/C (second compound 1 µM, first compound 0.1 µM) 4.7% | viability, T/C (second compound 1 µM, first compound 0.316 µM) 1.55% | viability, T/C (second compound 1 µM, first compound 1 µM) 1.67%
inactive: viability, T/C (second compound 0.00316 µM, first compound 0.00316 µM) 89.9% | viability, T/C (second compound 0.00316 µM, first compound 0.01 µM) 89.7% | viability, T/C (second compound 0.00316 µM, first compound 0.0316 µM) 36.7% | viability, T/C (second compound 0.01 µM, first compound 0.00316 µM) 90.6% | viability, T/C (second compound 0.01 µM, first compound 0.01 µM) 87.7% | viability, T/C (second compound 0.01 µM, first compound 0.0316 µM) 53.7% | viability, T/C (second compound 0.0316 µM, first compound 0.00316 µM) 88.7% | viability, T/C (second compound 0.0316 µM, first compound 0.01 µM) 86.3% | viability, T/C (second compound 0.0316 µM, first compound 0.0316 µM) 41.4% | viability, T/C (second compound 0.1 µM, first compound 0.00316 µM) 96.5% | viability, T/C (second compound 0.1 µM, first compound 0.01 µM) 82.5% | viability, T/C (second compound 0.1 µM, first compound 0.0316 µM) 34.6% | viability, T/C (second compound 0.316 µM, first compound 0.00316 µM) 89.9% | viability, T/C (second compound 0.316 µM, first compound 0.01 µM) 82.8% | viability, T/C (second compound 0.316 µM, first compound 0.0316 µM) 37.8% | viability, T/C (second compound 1 µM, first compound 0.00316 µM) 93% | viability, T/C (second compound 1 µM, first compound 0.01 µM) 80% | viability, T/C (second compound 1 µM, first compound 0.0316 µM) 30.3%
20 nM: IC50 (curve of first compound, second compound 1 µM)
23.1 nM: IC50 (curve of first compound, second compound 0.316 µM)
23.7 nM: IC50 (curve of first compound, second compound 0.00316 µM)

CC(C)n1nc(-c2ccc3oc(N)nc3c2)c2c(N)ncnc21 + CCn1c(-c2cc(N3CCN(C)CC3)cnc2C(C)OC)c2c3cc(ccc31)-c1csc(n1)CC(NC(=O)C1CC1C)C(=O)N1CCCC(N1)C(=O)OCC(C)(C)C2
< 0.316 nM: IC50 [3] | IC50 [4] | IC50 [5] | IC50 [6]
inactive: viability, T/C (second compound 0.000949 µM, first compound 0.000316 µM) 73% | viability, T/C (second compound 0.000949 µM, first compound 0.001 µM) 70.4% | viability, T/C (second compound 0.000949 µM, first compound 0.00316 µM) 58.7% | viability, T/C (second compound 0.000949 µM, first compound 0.01 µM) 38.6% | viability, T/C [7] 24.8% | viability, T/C [8] 13.5% | viability, T/C (second compound 0.003 µM, first compound 0.000316 µM) 49.6% | viability, T/C (second compound 0.003 µM, first compound 0.001 µM) 57.5% | viability, T/C (second compound 0.003 µM, first compound 0.00316 µM) 52.5% | viability, T/C (second compound 0.003 µM, first compound 0.01 µM) 27.7% | viability, T/C [9] 19.7% | viability, T/C [10] 11% | viability, T/C (second compound 0.00949 µM, first compound 0.000316 µM) 36.5% | viability, T/C (second compound 0.00949 µM, first compound 0.001 µM) 36.6% | viability, T/C (second compound 0.00949 µM, first compound 0.00316 µM) 28.2% | viability, T/C (second compound 0.00949 µM, first compound 0.01 µM) 19.7% | viability, T/C [11] 11.6% | viability, T/C (second compound 0.03 µM, first compound 0.000316 µM) 22.3% | viability, T/C (second compound 0.03 µM, first compound 0.001 µM) 19.4% | viability, T/C (second compound 0.03 µM, first compound 0.00316 µM) 13.2% | viability, T/C (second compound 0.03 µM, first compound 0.01 µM) 12.6% | viability, T/C (second compound 0.0949 µM, first compound 0.000316 µM) 15.6% | viability, T/C (second compound 0.0949 µM, first compound 0.001 µM) 13.8% | viability, T/C (second compound 0.0949 µM, first compound 0.00316 µM) 12.8% | viability, T/C (second compound 0.3 µM, first compound 0.000316 µM) 13.9% | viability, T/C (second compound 0.3 µM, first compound 0.001 µM) 13.4% | viability, T/C (second compound 0.3 µM, first compound 0.00316 µM) 10.7%
5.34 nM: IC50 [1]
active: viability, T/C [12] 7.59% | viability, T/C [13] 7.81% | viability, T/C [14] 4.67% | viability, T/C (second compound 0.0949 µM, first compound 0.01 µM) 10.3% | viability, T/C [15] 7.44% | viability, T/C [16] 4.77% | viability, T/C (second compound 0.3 µM, first compound 0.01 µM) 9.85% | viability, T/C [17] 6.87% | viability, T/C [18] 3.78%
3.42 nM: IC50 [2]
